Source: patent US12503476B2, “Ring-fused 2-pyridone compounds, methods for preparation thereof and their use in the treatment and/or prevention of a disease involving gram-positive bacteria” (QURETECH BIO AB, priority 2020, dated 2025)
Values after ≈ are worked out from the molar mass of the structure shown. Read-outs that look alike come from different tables or passages of the source. Blank lines part the entries; values can stand above or below the compound they belong to.

Key:
E. faecalis [1] = test: Minimum Bactericidal Concentration (MBC) assay, E. faecalis; conditions: Table 3; compound alone, no antibiotic; MIC cultures plated on BHI; second figure of MIC/MBC; n.d. = activity not observed at the concentrations tested
E. faecalis [2] = test: Minimum Inhibitory Concentration (MIC) assay, E. faecalis; type: cell-based, Enterococcus faecalis; conditions: for MIC: first figure of MIC/MBC, read-out: MIC for E. faecalis; for Growth inhibition of the pathogen of interest compared to the compound of Example 14 in WO 2018/229141: conclusion from Table 3 (E. faecalis and MRSA)
Experimental: (§1) The cultures (200 μl) were incubated at 37° C. for 24 h. […] The MIC was measured in micromolar concentration, i.e. μM. Objectively, this was determined by measuring the optical density (i.e. OD) of the test cultures at 600 nm using a spectrophotometer. As used herein, OD600 stands for optical density at a wavelength of 600 nm (i.e. 600 nanometers).

E. faecalis OG1RF = test: Combined activity with gentamicin, vancomycin or ampicillin, E. faecalis OG1RF; type: cell-based, Enterococcus faecalis; conditions: gentamicin 16 μg/ml; for Synergistic effect when combined with gentamicin: 24 h
Experimental: […]. The concentrations used in the experiments with E. faecalis OG1RF were 16 μg/ml gentamicin, 1 μg/ml vancomycin or 1 μg/ml ampicillin. In experiments where combinations were tested against MRSA 1369, 0.05 μg/ml gentamicin, 1 μg/ml vancomycin or 16 μg/ml ampicillin was used.
Bacterial cultures (190 μl) at a starting OD=0.001 at OD600 were incubated together with either subinhibitory concentrations of gentamicin/vancomycin/ampicillin or compound alone, or a combination of the two. The cultures (200 μl) were incubated at 37° C. for 24 h. A control sample without compound and gentamicin/vancomycin/ampicillin but containing compound vehicle (DMSO) and gentamicin/vancomycin/ampicillin vehicle (MQ water) was performed the same way. After 24 h, the effect on bacterial growth compared to untreated control samples was determined by measuring optical density at 600 nm with a spectrophotometer.
[…]. MIC/MBC values for the compounds administered alone are also shown for comparison. Unless otherwise stated, the compound was provided in a concentration of 1 μM.

MRSA [3] = test: Minimum Inhibitory Concentration (MIC) assay, MRSA; type: cell-based, Methicillin-resistant Staphylococcus aureus; conditions: no antibiotic, 24 h, 37° C., n.d. = activity not observed at the concentrations tested, read-out: MIC for MRSA
Experimental: as §1

MRSA [4] = test: Minimum Bactericidal Concentration (MBC) assay, MRSA; conditions: compound alone, no antibiotic, MIC cultures plated on BHI, second figure of MIC/MBC, n.d. = activity not observed at the concentrations tested; for MBC for MRSA: Table 3; for MBC: Staphylococcus aureus, MRSA, read-out: MBC for MRSA, Table 3
[5] = Enterococcus faecalis, Table 4, compound administered alone, n.d. = activity not observed
[6] = Table 3, compound alone, no antibiotic, 24 h, 37° C., OD600, n.d. = activity not observed at the concentrations tested
[7] = Table 3, compound alone, OD600, first figure of MIC/MBC
[8] = compound 1 μM, n.d. = activity not observed
[9] = Enterococcus faecalis, 24 h, Table 3, compound alone, no antibiotic, 24 h, 37° C., OD600, n.d. = activity not observed at the concentrations tested
[10] = Staphylococcus aureus, MRSA, Table 3, compound alone, OD600, first figure of MIC/MBC
[11] = subinhibitory compound 1-4 μM, OD600 24 h

MIC (E. faecalis [2]; [5]): 10 µM (≈ 5.48 µg/mL)
MIC (E. faecalis [2]; [6]): 10 µM (≈ 5.48 µg/mL)
MIC (MRSA [3]; [7]): 5 µM (≈ 2.74 µg/mL)
Structure (SMILES): O=C(O)C12C[C@@H](c3cccc(C(F)(F)F)c3)C1Sc1c(C3CC3)c(Cc3cccc4ccccc34)cc(=O)n12 (single isomer, unassigned) [Example 1]
MBC for E. faecalis (E. faecalis [1]): 25 µM
Synergistic effect when combined with gentamicin (E. faecalis OG1RF; compound 2 μM): Yes
MBC for MRSA (MRSA [4]): 10 µM

MIC (E. faecalis [2]; [6]): 10 µM (≈ 5.48 µg/mL)
MIC (E. faecalis [2]; Table 4, compound administered alone, n.d. = activity not observed): 10 µM (≈ 5.48 µg/mL)
MIC (MRSA [3]; [7]): 5 µM (≈ 2.74 µg/mL)
Structure (SMILES): O=C(O)C12C[C@@H](c3cccc(C(F)(F)F)c3)C1Sc1c(C3CC3)c(Cc3cccc4ccccc34)cc(=O)n12 (single isomer, unassigned) [Example 2]
OD600 at 24 h when combined with gentamicin (E. faecalis OG1RF; compound 1 μM): OD600 = 0.1
Synergistic effect when combined with gentamicin (E. faecalis OG1RF; [8]): Yes
MBC for MRSA (MRSA [4]): 10 µM

MIC (E. faecalis [2]; [9]): 5 µM (≈ 2.74 µg/mL)
MIC (MRSA [3]; [10]): 5 µM (≈ 2.74 µg/mL)
Structure (SMILES): O=C(O)C12C[C@@H](c3ccc(C(F)(F)F)cc3)C1Sc1c(C3CC3)c(Cc3cccc4ccccc34)cc(=O)n12 (some centres unmarked) [Example 8]
Growth inhibition of the pathogen of interest compared to the compound of Example 14 in WO 2018/229141 (E. faecalis [2]; compound alone): substantially similar extent or to a higher extent
MBC (MRSA [4]): 10 µM (≈ 5.48 µg/mL)

MIC (E. faecalis [2]; [6]): 10 µM (≈ 5.14 µg/mL)
MIC (MRSA [3]; [7]): 5 µM (≈ 2.57 µg/mL)
Structure (SMILES): O=C(O)C12C[C@@H](c3cccc(Cl)c3)C1Sc1c(C3CC3)c(Cc3cccc4ccccc34)cc(=O)n12 (some centres unmarked) [Example 10]
MBC for MRSA (MRSA [4]): 10 µM

MIC (E. faecalis [2]; [9]): 10 µM (≈ 5.48 µg/mL)
MIC (MRSA [3]; [10]): 10 µM (≈ 5.48 µg/mL)
Structure (SMILES): O=C(O)C12C[C@H](c3cc(Cl)cc(Cl)c3)C1Sc1c(C3CC3)c(Cc3cccc4ccccc34)cc(=O)n12 (some centres unmarked) [Example 16]

More lines, now with the values behind:

Structure (SMILES): CCCOc1ccc([C@@H]2CC3(C(=O)O)C2Sc2c(C4CC4)c(Cc4cccc5ccccc45)cc(=O)n23)cc1C (some centres unmarked) [Example 22]
MIC (E. faecalis [2]; [9]): 4 µM (≈ 2.21 µg/mL)
Growth inhibition of the pathogen of interest compared to the compound of Example 14 in WO 2018/229141 (E. faecalis [2]; compound alone): substantially similar extent or to a higher extent
E. faecalis activity, combination with gentamicin compared to gentamicin alone, compound alone and comparative example alone (E. faecalis OG1RF; [11]): much larger extent
E. faecalis activity, combination with gentamicin compared to the combination of the comparative example and gentamicin (E. faecalis OG1RF; [11]): much larger extent
MIC (MRSA [3]; [10]): 4 µM (≈ 2.21 µg/mL)
MBC (MRSA [4]): 4 µM (≈ 2.21 µg/mL)

Structure (SMILES): CCCCOc1ccc([C@@H]2CC3(C(=O)O)C2Sc2c(C4CC4)c(Cc4cccc5ccccc45)cc(=O)n23)cc1C (some centres unmarked) [Example 23]
MIC (E. faecalis [2]; [9]): 3 µM (≈ 1.7 µg/mL)
MIC (E. faecalis [2]; [5]): 3 µM (≈ 1.7 µg/mL)
Growth inhibition of the pathogen of interest compared to the compound of Example 14 in WO 2018/229141 (E. faecalis [2]; compound alone): substantially similar extent or to a higher extent
OD600 at 24 h when combined with gentamicin (E. faecalis OG1RF; compound 1 μM): OD600 = 0
Synergistic effect when combined with gentamicin (E. faecalis OG1RF; [8]): Yes
MIC (MRSA [3]; [10]): 3 µM (≈ 1.7 µg/mL)
MBC (MRSA [4]): 5 µM (≈ 2.83 µg/mL)

Structure (SMILES): O=C(O)C12C[C@@H](Sc3ccccc3)C1Sc1c(C3CC3)c(Cc3cccc4ccccc34)cc(=O)n12 (some centres unmarked) [Example 27]
MIC (MRSA [3]; [10]): 10 µM (≈ 5.12 µg/mL)

Structure (SMILES): O=C(O)C12C[C@H](Sc3ccccc3)C1Sc1c(C3CC3)c(Cc3cccc4ccccc34)cc(=O)n12 (some centres unmarked) [Example 28]
MIC (MRSA [3]; [10]): 25 µM (≈ 12.8 µg/mL)

Structure (SMILES): COc1c(Cc2cccc3ccccc23)c(N(C)C)c(=O)n2c1SC1[C@H](c3cccc(C(F)(F)F)c3)CC12C(=O)O (some centres unmarked) [Example 29]
MIC (E. faecalis [2]; [9]): 25 µM (≈ 14.5 µg/mL)
MIC (MRSA [3]; [10]): 7.5 µM (≈ 4.35 µg/mL)
MBC (MRSA [4]): 7.5 µM (≈ 4.35 µg/mL)

Structure (SMILES): Cc1cc(C)cc([C@@H]2CC3(C(=O)O)C2Sc2c(C4CC4)c(Cc4cccc(Cl)c4Cl)cc(=O)n23)c1 (some centres unmarked) [Example 31]
MIC (MRSA [3]; [10]): 5 µM (≈ 2.63 µg/mL)

Structure (SMILES): O=C(O)C12C[C@@H](c3c(Cl)cccc3Cl)C1Sc1c(C3CC3)c(Cc3cc4ccccc4s3)cc(=O)n12 (some centres unmarked) [Example 34]
MIC (MRSA [3]; [10]): 5 µM (≈ 2.77 µg/mL)

Structure (SMILES): O=c1cc(Cc2cccc3ccccc23)c(C2CC2)c2n1C(CCB(O)O)CS2 (centres unmarked) [Example 35]
OD600 at 24 h when combined with gentamicin (E. faecalis OG1RF; compound 25 μM): OD600 = 0
Synergistic effect when combined with gentamicin (E. faecalis OG1RF; compound 25 μM): Yes
MIC (MRSA [3]; [10]): 50 µM (≈ 20.3 µg/mL)

Structure (SMILES): O=c1cc(Cc2cccc3ccccc23)c(-c2cccc(C(F)(F)F)c2)c2n1C(CCB(O)O)CS2 (centres unmarked) [Example 37]
OD600 at 24 h when combined with gentamicin (E. faecalis OG1RF; compound 10 μM): OD600 = 0
Synergistic effect when combined with gentamicin (E. faecalis OG1RF; compound 10 μM): Yes
MIC (MRSA [3]; [10]): 50 µM (≈ 25.5 µg/mL)
